# In patent US20170145363A1, “MICROFLUIDIC DUAL-WELL DEVICE FOR HIGHTHROUGHPUT SINGLE-CELL CAPTURE AND CULTURE” (NATIONAL HEALTH RESEARCH INSTITUTES, priority 2015, published 2017):
# Tested on: A549 cells
# Test: EGF promoted colony formation assay of A549 single cells in DW device
# Assay type: cell-based, human
# Details: 200 ng mL-1 EGF in DMEM with 10% FBS, 7 days of culture, colonies >15 cells per culture-well, control medium 12.10%
# Description: In the EGF promoted colony formation assay, 200 μL of A549 cells at a concentration of 2.2-2.5×10^6 cells per mL was injected into the DW device manually and allowed to settle for 2 min, followed by injecting DMEM with 20% FBS and 1% antibiotics into the microchannel immediately to wash off excess cells in the channel at a flow rate of 600 μL min^−1 for 30 s. Subsequently, the inlet and outlet holes were sealed and the device was flipped upside down to obtain a single cell in a culture-well. The device was then placed in a humidified incubator at 37° C. with 5% CO2 as described above. After 1 day of culture, one of the device (for the control experiment) was injected with 300 μL of DMEM containing 10% FBS and 1% antibiotics to replace the original medium. […] Colonies with cell numbers higher than 15 cells in a culture-well were scored as cell colonies.
# Due to its high single-cell capture efficiency and large space of culture wells, the DW device represents an attractive tool for in vitro single-cell colony formation assays in which the growth of individual cells is analyzed. […] The portability and transparency of the DW device allowed the cells in the device to be conveniently analyzed with a conventional microscope during cell culture experiments (FIGS. 7A-D). […]
substance,measurement,value
"EGF: epithelial growth factor (EGF, PeproTech, USA) supplied in the culture medium at 200 ng mL-1",colony forming efficiency,17.56%
